# Laboratory results published in patent publication US20210045383A1, “ORGANIC METABOLITE COMPOSITIONS AND METHODS OF USE AS MITICIDES FOR HONEY BEES” (priority 2018, published 2021).
# What was measured:
# Varroa destructor = assay: Test hives treated with miticide treatment strips; mite levels by sugar roll method and sticky board mite drops; conditions: for mite loads once treatment resumed: after skipped mid-summer treatment (mite counts above 3 per 100 bees in September); for mites loads in the treated hives: single treatments on a three-month schedule
# honey bees = conditions: applied using the Dribble Method; cited from earlier work
SMILES,mite loads once treatment resumed (Varroa destructor),mites loads in the treated hives (Varroa destructor),bee mortality (honey bees)
N[C@@H](CC(=O)O)C(=O)O [aspartic acid],reduced mite loads to an acceptable level,zero,
N[C@@H](CCC(=O)O)C(=O)O [glutamic acid],reduced mite loads to an acceptable level,zero,
O=C(O)C(=O)O [oxalic acid],,,Increased bee mortality
